Tests used:
RPMI-8226 [1] = test: Antiproliferative activity against human RPMI-8226 cells cultured as 3D-spheroids assessed as reduction in cell viability after 48 hrs by Celltiter-Glo assay; format: functional, cell-based; conditions: RPMI-8226, 48 h
[2] = Antiproliferative activity against human MM1.R cells assessed as reduction in cell viability incubated for 72 hrs by XTT assay; format: functional, cell-based; conditions: MM.1R
RPMI-8226 [3] = test: Antiproliferative activity against human RPMI 8226 cells assessed as reduction in cell viability incubated for 72 hrs by XTT assay; format: functional, cell-based; conditions: RPMI-8226, 72 h
MM1.S = test: Antiproliferative activity against human MM1.S cells assessed as reduction in cell viability incubated for 72 hrs by XTT assay; format: functional, cell-based
[4] = Stability in human RPMI 8226 cells medium measured upto 72 hrs by HPLC analysis; format: ADME, cell-based; conditions: rpmi-8226, 72 h

Row | IC50 (RPMI-8226 [1]) [µM] | IC50 (RPMI-8226 [3]) [µM] | IC50 (MM1.S) [µM] | Stability [4] | SMILES | IC50 [2] [µM]
1 | 1.39 | 0.203 | 0.097 |  | CC(=O)O[C@H]1C=CC(=O)[C@]2(C)[C@H]3CC[C@]4(C)[C@@H]([C@H](C)[C@H]5CC(C)=C(CO)C(=O)O5)CC[C@H]4[C@@H]3C[C@H]3O[C@]132 | 0.129
2 |  | 0.777 |  |  | CC(=O)OCC1=C(C)C[C@H]([C@@H](C)[C@H]2CC[C@H]3[C@@H]4C[C@H]5O[C@]56C(=O)C=CC(=O)[C@]6(C)[C@H]4CC[C@]23C)OC1=O | 
3 | > 40 | 0.276 | 0.75 |  | CC1=C(C)C(=O)O[C@@H]([C@](C)(O)[C@H]2CC[C@H]3[C@@H]4C[C@H]5O[C@]56C(=O)C=CC(=O)[C@]6(C)[C@H]4CC[C@]23C)C1 | 0.858
4 |  | 0.889 |  |  | CC1=C(CO)C(=O)O[C@@H]([C@@H](C)[C@H]2CC[C@H]3[C@@H]4C[C@H](I)[C@]5(O)[C@@H](O)C=CC(=O)[C@]5(C)[C@H]4CC[C@]23C)C1 | 
5 | 9.93 | 0.458 | 0.246 |  | CC(=O)OCC1=C(C)C[C@H]([C@@H](C)[C@H]2CC[C@H]3[C@@H]4CC=C5C(=O)C=CC(=O)[C@]5(C)[C@H]4CC[C@]23C)OC1=O | 0.236
6 | 0.82 | 0.252 | 0.206 |  | CC(=O)O[C@H]1C=CC(=O)[C@]2(C)[C@H]3CC[C@]4(C)[C@@H]([C@@](C)(O)[C@H]5CC(C)=C(C)C(=O)O5)CC[C@H]4[C@@H]3C[C@H]3O[C@]132 | 0.35
7 | 1.87 | 0.484 | 0.055 |  | CC1=C(CO)C(=O)O[C@@H]([C@@H](C)[C@H]2CC[C@H]3[C@@H]4C[C@H]5O[C@]56[C@@H](O)[C@@H](N5CCCCC5)CC(=O)[C@]6(C)[C@H]4CC[C@]23C)C1 | 0.08
8 |  | 0.942 |  |  | CC(=O)OCC1=C(C)C[C@H]([C@@H](C)[C@H]2CC[C@H]3[C@@H]4CC=C5C(=O)C=C[C@@H](OC(C)=O)[C@]5(C)[C@H]4CC[C@]23C)OC1=O | 
9 |  | 0.744 |  |  | CC1=C(C)C(=O)O[C@@H]([C@](C)(O)[C@H]2CC[C@H]3[C@@H]4C[C@H]5O[C@]56CC=CC(=O)[C@]6(C)[C@H]4CC[C@]23C)C1 | 
10 | 2.29 | 0.122 | 0.338 |  | CC1C(=O)O[C@@H]([C@](C)(O)C2=CC[C@@]3(O)[C@@H]4C[C@H]5O[C@]56[C@@H](O)C=CC(=O)[C@]6(C)[C@H]4CC[C@]23C)C[C@@H]1C (some centres not stated) | 0.209
11 |  | 0.78 |  |  | CC1=C(C)C(=O)O[C@@H]([C@](C)(O)[C@H]2CC[C@H]3[C@@H]4CC=C5C(=O)C=CC(=O)[C@]5(C)[C@H]4CC[C@]23C)C1 | 
12 | > 40 | 0.506 | 1.82 |  | C[C@H]1C[C@H]([C@](C)(O)[C@@]2(O)CC[C@H]3[C@@H]4C[C@H]5O[C@]56[C@@H](O)C=CC(=O)[C@]6(C)[C@H]4CC[C@@]32C)OC(=O)[C@@H]1C | 1.09
13 |  | 0.95 |  |  | CC1=C(C)C(=O)O[C@@H]([C@](C)(O)[C@H]2CC[C@H]3[C@@H]4C[C@H](I)[C@]5(O)C(=O)C=CC(=O)[C@]5(C)[C@H]4CC[C@]23C)C1 | 
14 |  | 0.77 |  |  | CC(=O)OCC1=C(C)C[C@H]([C@@H](C)[C@H]2CC[C@H]3[C@@H]4CC=C5C(O)C=CC(=O)[C@]5(C)[C@H]4CC[C@]23C)OC1=O (some centres not stated) | 
15 | 1.64 | 0.301 | 0.601 |  | CC(=O)O[C@@H]1C=CC(=O)[C@]2(C)[C@H]3CC[C@]4(C)[C@@H]([C@@](C)(O)[C@H]5CC(C)=C(C)C(=O)O5)CC[C@H]4[C@@H]3C[C@H]3O[C@]132 | 0.522
16 |  | 0.545 |  |  | CC1=C(C)C(=O)O[C@@H]([C@](C)(O)[C@H]2CC[C@H]3[C@@H]4C[C@H](I)[C@]5(O)[C@@H](O)C=CC(=O)[C@]5(C)[C@H]4CC[C@]23C)C1 | 
17 | > 40 | 0.252 | 0.229 |  | CC(=O)OCC1=C(C)C[C@H]([C@@H](C)[C@H]2CC[C@H]3[C@@H]4C[C@H]5O[C@]56[C@@H](O)[C@@H](OC(C)=O)CC(=O)[C@]6(C)[C@H]4CC[C@]23C)OC1=O | 0.374
18 | 12.3 | 0.451 | 1.29 |  | C[C@H]1C(=O)O[C@@H]([C@](C)(O)[C@H]2CC[C@H]3[C@@H]4C[C@H]5O[C@]56[C@@H](O)C=CC(=O)[C@]6(C)[C@H]4CC[C@]23C)C[C@@]1(C)O | 0.997
19 |  | 0.609 |  |  | CC1=C(C)C(=O)O[C@@H]([C@](C)(O)[C@H]2[C@@H](O)C[C@H]3[C@@H]4C[C@H](I)[C@]5(O)[C@@H](O)C=CC(=O)[C@]5(C)[C@H]4CC[C@]23C)C1 | 
20 | 3.42 | 0.217 | 0.37 |  | CC(=O)O[C@H]1C=CC(=O)[C@]2(C)[C@H]3CC[C@@]4(C)[C@H]([C@@H]3C[C@H]3O[C@]132)[C@H](OC(C)=O)C[C@@H]4[C@@](C)(O)[C@H]1CC(C)=C(C)C(=O)O1 | 0.322
21 | 2.62 | 0.27 | 0.06 |  | CC1=C(CO)C(=O)O[C@@H]([C@@H](C)[C@H]2CC[C@H]3[C@@H]4C[C@H]5O[C@]56[C@@H](O)[C@@H](n5ccnc5)CC(=O)[C@]6(C)[C@H]4CC[C@]23C)C1 | 0.075
22 | 4.65 | 0.239 | 0.559 |  | C[C@@H]1[C@@H](C)C(=O)OC12C[C@](C)(O)C1[C@H](C[C@H]3[C@@H]4C[C@H]5O[C@]56[C@@H](O)C=CC(=O)[C@]6(C)[C@H]4CC[C@]13C)O2 (some centres not stated) | 0.366
23 |  |  |  | Stable | CC1=C(CO[Si](C)(C)C(C)(C)C)C(=O)O[C@@H]([C@@H](C)[C@H]2CC[C@H]3[C@@H]4C[C@H]5O[C@]56[C@@H](O[Si](C)(C)C)C=CC(=O)[C@]6(C)[C@H]4CC[C@]23C)C1 | 
24 |  | 0.768 |  |  | CC1=C(C)C(=O)O[C@@H]([C@](C)(O)[C@H]2CC[C@H]3[C@@H]4CC=C5[C@H](O)C=CC(=O)[C@]5(C)[C@H]4CC[C@]23C)C1 | 
25 |  | 0.601 |  |  | C[C@H]1[C@H]([C@@H](O)[C@](C)(O)[C@H]2[C@@H](O)C[C@H]3[C@@H]4C[C@H]5O[C@]56[C@@H](O)C=CC(=O)[C@]6(C)[C@H]4CC[C@]23C)OC(=O)[C@@H]1C | 
26 | 0.0064 | 0.0047 | 0.0025 |  | CC(C)C[C@H](NC(=O)[C@H](Cc1ccccc1)NC(=O)c1cnccn1)B(O)O [BORTEZOMIB] | 0.0024
27 | 1.6 | 0.258 | 0.053 |  | CC1=C(CO)C(=O)O[C@@H]([C@@H](C)[C@H]2CC[C@H]3[C@@H]4C[C@H]5O[C@]56[C@@H](O)C=CC(=O)[C@]6(C)[C@H]4CC[C@]23C)C1 [WITHAFERIN A] | 0.263

Row | SMILES | IC50 (RPMI-8226 [1]) [µM] | IC50 (RPMI-8226 [3]) [µM] | IC50 (MM1.S) [µM] | Stability [4] | IC50 [2] [µM]
28 | CC(=O)OCC1=C(C)C[C@H]([C@@H](C)[C@H]2CC[C@H]3[C@@H]4C[C@H]5O[C@]56[C@@H](O)C=CC(=O)[C@]6(C)[C@H]4CC[C@]23C)OC1=O | 1.51 | 0.212 | 0.114 |  | 0.107
29 | C[C@H]1C[C@H]([C@](C)(O)[C@H]2[C@@H](O)C[C@H]3[C@@H]4C[C@H]5O[C@]56[C@@H](O)C=CC(=O)[C@]6(C)[C@H]4CC[C@]23C)OC(=O)[C@@H]1C | 3.23 | 0.273 | 0.623 |  | 0.425
30 | CC1=C(CO)C(=O)O[C@@H]([C@@H](C)[C@H]2CC[C@H]3[C@@H]4C[C@H]5O[C@]56[C@@H](O)[C@@H](OS(=O)(=O)O)CC(=O)[C@]6(C)[C@H]4CC[C@]23C)C1 | 8.52 | 0.218 | 0.115 |  | 0.129
31 | CC1=C(C)C(=O)O[C@@H]([C@](C)(O)[C@H]2CC[C@H]3[C@@H]4C[C@H]5O[C@]56C(O)C=CC(=O)[C@]6(C)[C@H]4CC[C@]23C)C1 (some centres not stated) | 1.57 | 0.297 | 0.441 |  | 0.372
32 | CC1=C(C)C(=O)O[C@@H]([C@](C)(O)[C@H]2CC[C@H]3[C@@H]4C[C@H]5O[C@]56[C@@H](O)C=CC(=O)[C@]6(C)[C@H]4CC[C@]23C)C1 [WITHANOLIDE D] | 0.98 | 0.076 | 0.107 |  | 0.106

— ChEMBL document CHEMBL4828747, “Structure-Activity Relationships of Withanolides as Antiproliferative Agents for Multiple Myeloma: Comparison of Activity in 2D Models and a 3D Coculture Model” (J Nat Prod, 2021)
